# Data: patent US20060241150A1, “P38 kinase inhibitor compositions and methods of using the same” (priority 2003, published 2006)
# Entries after “also recorded” stand apart in the source; their conditions may differ.
# Tests used:
# c-Jun = assay: Immunoblot of c-Jun in nuclear extracts of Nef treated cells; assay type: cell-based, human; details: 1 μM
# Protocol: Experimental cells were washed with ice-cold PBS, and the cells were lysed in protein lysis buffer (20 mM Tris (pH7.4), 150 mM NaCl, 1 mM EDTA, 1 mMEGTA, 1% triton, 2.5 mM sodium pyrophosphate, 1 mM […]-glycerolphasphate, 1 mM Na3Vp4, 1 μM/ml leupeptin and 1 mM phenyl methyl-sulfonyl fluoride). After a brief sonication, the lysates were clarified by centrifugation at 10,000 rpm and protein content was measured by the Bradford method (Bio-Rad, CA). Nuclear extracts were prepared using NE-PER nuclear and cytoplasmic extraction reagents (Pierce, USA) and the protein concentration of the nuclear extract was determined by BCA-200 protein assay kit (Pierce, USA) assayed following the manufacturer's instructions.
# For Western blot analysis 50 μg of protein per lane was loaded onto acrylamide gels and separated by 12% SDS-PAGE and blotted to PVDF tmnsfer membrane. Immunoblot was carried out using the primary antibody (c-Jun, Phospho-p38 MAP Kinase (Thr180/Tyr182); Cell Signaling, MA, USA) and detected with secondary HRP-conjugated anti-rabbit IgG using Amersham ECL system. Further, the membrane was washed thoroughly using lxWestern re-probe buffer (Geno Tech, MO) and re immunoblotted with anti-actin (Calbiochem, CA) antibody, which recognizes the actin expression in cultured and serves cells as a positive control for gene expression and as an internal standard.
# AP-1 = AP-1 dependent luciferase reporter assay in Nef transfected Jurkat cells; assay type: cell-based, human; details: 1 μM; 24 hours
# Protocol: (§1) Jurkat cells (1×10^6) were seeded onto a 60 mm culture dish (Falcon) and elctrotransfected the cells next day with NF-κB or AP-1 dependent reporter plasmid (10 μg) with pNef (10 μg), and/with or without Cpd4 (1 μM). After 24 hours, transfected cells were lysed with Reporter lysis Buffer (RLB) according to the manufacturer's instructions (Roche, USA). Luciferase activity was measured via LUMAT LB9501 (Berthold, USA). β-Gal levels were used to normalize for transfection efficiency with the chemiluminescent β-Gal reporter gene Assay kit (Roche, USA).
# Caspase 3 = assay: Caspase-3/CPP32 colorimetric protease assay on lysates of HIV-1 infected cells; assay type: cell-based, human; details: 89.6 or pNL4-3 virus; FIG. 1D
# Protocol: (§2) FACS analysis was performed to identify cells undergoing apoptosis. Equal numbers of cells from each test group were collected for analysis. Apoptosis in experimental cells was analyzed by using an Annexin-V assay kit from PharMingen (CA). Data was analyzed by the CELL Quest program (Beckton-Dickinson, CA). Caspase 3 activity was determined using Caspase-3/CPP32 colorimetric protease assay kit according to the manufacturer's instructions (MBL, Nagoya, Japan).
# p38 MAPK = assay: Immunoblot of p38 and phospho-p38 in Nef treated Jurkat cells; assay type: cell-based, human; details: 1 μM
# Protocol: Experimental cells were washed with ice-cold PBS, and the cells were lysed in protein lysis buffer (20 mM Tris (pH7.4), 150 mM NaCl, 1 mM EDTA, 1 mMEGTA, 1% triton, 2.5 mM sodium pyrophosphate, 1 mM □-glycerolphasphate, 1 mM Na3Vp4, 1 μM/ml leupeptin and 1 mM phenyl methyl-sulfonyl fluoride). After a brief sonication, the lysates were clarified by centrifugation at 10,000 rpm and protein content was measured by the Bradford method (Bio-Rad, CA).
# For Western blot analysis 50 μg of protein per lane was loaded onto acrylamide gels and separated by 12% SDS-PAGE and blotted to PVDF tmnsfer membrane. […] Further, the membrane was washed thoroughly using lxWestern re-probe buffer (Geno Tech, MO) and re immunoblotted with anti-actin (Calbiochem, CA) antibody, which recognizes the actin expression in cultured and serves cells as a positive control for gene expression and as an internal standard.
# p38 MAP Kinase = p38 MAP Kinase (Homo sapiens, UniProt Q16539); details: cited from earlier work
# [1] = test system: Nef driven FasL expression in Jurkat cells; assay: FasL expression in Jurkat cells transfected with pNef; assay type: cell-based, human
# Source text: (§3) Constructs containing Nef were generated using overlap extension PCR at the indicated codons and were cloned into the pCDNA3.1 vector (InVitrogen, CA). The HIV-1 proviral infectious vector pNL4-3 was obtained through the NIH AIDS research and Reference Reagent Program. This vector has been rendered Nef deficient by 5′ frame shift mutation in the Nef region (He, J., Choe, et al, J. Virol. 69, 6705-6711 (1995) which is incorporated herein by reference).
# (§4) Single cell suspensions were washed in PBS (pH 7.2) containing 0.2% bovine serum albumin and 0.1% NaN3. Cells were incubated with PE labeled […]-CD95L antibody (NOK-1, 0.05 μg/ml, BD Pharmingen, CA, USA) antibody for 60 minutes at 4° C. Cells were washed with PBS and fixed with 2% paraformaldehyde and resuspended in 200 μl PBS and subjected to FACS (FL2 histogram) analysis (Beckton Dickinson, CA). Data were analyzed using the CELL Quest program (Beckton-Dickinson, CA).
# [2] = test system: Nef mediated FasL expression in human PBMCs; assay: p24gag / FasL flow cytometry in PBMCs infected with Nef positive pNL4-3 virus; assay type: cell-based; details: 1 μM; PBMCs infected with pNL4-3 Wt (Nef positive) virus
# Source text: as §3
# To prepare infectious viral stocks, HIV-1 proviral DNA (pNL4-3 Wt and pNL4-3 and Nef delta) were generated as described Muthumani, K., et al, Journal of Biol. Chem. 277: 37820-37831 (2002). The viral titers were determined by infection of the human T cell line Jurkat using serially diluted virus supernatant. […] Viral stocks were normalized for virus content by infection and titration and stocks were stored in the presence of 10% FBS in aliquots at −80° C. until their use.
# as §4
# [3] = test system: FasL expression in HIV-infected Jurkat T cells; assay: FasL expression by flow cytometry in HIV-infected Jurkat T cells; assay type: cell-based, human; details: 1 μm, 89.6 or pNL4-3
# Protocol: (§5) The human CD4^+ T cell line Jurkat, or the monocyte line U937 were obtained from the American Type Culture Collection (Rockville, Md.). Cells were passaged in RPMI1640 (Gibco-BRL, MD) supplemented with 10% FBS, 2 mM L-glutamine, 100 U/ml penicillin G, and 100 μg/ml streptomycin maintained at 37° C. and 5% CO2 and verified routinely to certify that they were Mycoplasma negative. Human PBMCs were isolated from healthy HIV-seronegative donors by Ficoll-Hypaque separation (Pharmacia Biotech AB, Sweden). Peripheral blood mononuclear cells (PBMCs) from healthy adults were incubated for 2 days with 5 μg/ml phytohemagglutinin (PHA, Sigma) before the addition of 5 U/ml of human recombinant interleukin-2 (hrIL-2; R&D system, MN).
# (§6) Viruses that were assayed in these studies included the pNL 4-3 (dual tropic) virus, which uses both CCR5 & CxCR4 receptors, and 89.6 (dual tropic), which uses CCR5 & CxCR4 receptors. In addition clade specific viruses were studied and these were obtained through the NIH AIDS research and Reference Reagent Program. […]
# (§7) Single cell suspensions were washed in PBS (pH 7.2) containing 0.2% bovine serum albumin and 0.1% NaN3. […] Data were analyzed using the CELL Quest program (Beckton-Dickinson, CA).
# NF-κB = NF-κB dependent luciferase reporter assay in Nef transfected Jurkat cells; assay type: cell-based, human; details: 1 μM; 24 hours
# Protocol: as §1
# [4] = test system: apoptosis of CD8+ T cells co-cultured with HIV infected macrophages; assay: Bystander CD8+ T cell apoptosis induced by HIV infected macrophages (Annexin V); assay type: cell-based, human; details: 1 μM; latex bead stimulated 89.6 infected macrophages with autologous CD8+ T cells
# Protocol: Monocyte-derived macrophages (MDM) were prepared from PBMCs obtained from healthy donors and incubated at 37° C. in polystyrene T-75 flasks for 4-10 hrs at 37° C. After the incubation the cells were washed with RPMI 1640 for 3 times to remove non-adherent cells. The adherent monocytes were detached with ethylene diamine tetra-acetic acid (EDTA) and the purity of the monocyte cell populations thus isolated was >98% as determined by FACS staining for CD14^+. The CD14^+ positive cells were incubated in 6-well plates at a density of 1×10^6 cells/ml in RPMI medium supplemented with 10% human serum.
# Human PBMC's were isolated from healthy HIV-seronegative donors as described above. Purified CD8^+ T cells were isolated from PBMC by negative immunoselection using magnetic beads (Dynal, CA), for depletion of CD4^+ T cells. The puity of the isolated CD8+ T cells was determined to be by flow >99% pure. MDM were purified from freshly isolated PBMC as described above. MDM cells were cultured in 6 well plates at 0.5×10^6 cells/ml/well with 10 ng/ml M-CSF (R&D systems, MN) in RPMI 1640/10% Human serum. […] The analysis was performed on a gated CD8^+ T-cells (R1) and further CD8^+ positive cells were analyzed for the CD8^+/Annexin V positive cells (R2 population) in all experimental samples to further analysis the Apoptosis.
# [5] = test system: HIV-1 induced apoptosis in human PBMCs; assay: Annexin V-FITC FACS analysis of HIV-1 induced apoptosis in infected PBMCs; assay type: cell-based; details: for inhibition of apoptosis induced by 4 subtype divergent primary HIV viral isolates: FIG. 1C
# Protocol: as §5
# Viruses that were assayed in these studies included the pNL 4-3 (dual tropic) virus, which uses both CCR5 & CxCR4 receptors, and 89.6 (dual tropic), which uses CCR5 & CxCR4 receptors. In addition clade specific viruses were studied and these were obtained through the NIH AIDS research and Reference Reagent Program. For infection studies human PBMCs were isolated from normal, sero-negative donors, and infection was accomplished by incubating target cells with HIV-1 virus at a concentration of 100 TCID50/10^6 cells/ml. Culture supernatant was collected at 6, 12 and 24 hr intervals and assayed for virus production by measuring the p24 antigen released into the medium by ELISA (Coulter, FL) according to the manufacturer's instructions. Some data are presented as mean±SEM. For data presented as percent change, the base line (medium alone) value was subtracted from the value of each experimental condition as described in the legend.
# as §2
# [6] = test system: FasL expression in HIV-infected PBMCs; assay: FasL expression by flow cytometry in HIV-infected PBMCs; assay type: cell-based, human; details: 1 μm; PBMC's; 89.6 or pNL4-3
# Protocol: as §5, §6, §7
# p38 MAP Kinase, sequence (Q16539 whole entry): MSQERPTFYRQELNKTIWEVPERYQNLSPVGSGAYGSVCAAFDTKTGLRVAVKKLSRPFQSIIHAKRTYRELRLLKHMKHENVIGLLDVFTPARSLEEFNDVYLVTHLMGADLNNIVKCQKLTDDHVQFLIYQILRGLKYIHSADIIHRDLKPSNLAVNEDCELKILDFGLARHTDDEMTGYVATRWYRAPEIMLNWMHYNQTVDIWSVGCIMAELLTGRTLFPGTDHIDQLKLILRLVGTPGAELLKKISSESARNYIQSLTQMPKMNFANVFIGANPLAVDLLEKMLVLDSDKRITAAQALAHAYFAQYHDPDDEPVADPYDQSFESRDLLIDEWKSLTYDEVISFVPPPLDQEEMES
SMILES,Nef mediated phosphorylation / activation of c-Jun (c-Jun),blocking of Nef activation of AP-1 reporter (AP-1),inhibition of Caspase 3 activity (Caspase 3),total levels of p38 (p38 MAPK),Nef induced phosphorylation of p38 (p38 MAPK; 15-min exposure),inhibition of p38 MAP Kinase (p38 MAP Kinase; at 1 μM concentrations),anti-p38 activity compared with SB203580 (p38 MAP Kinase),inhibition of Nef driven induction of FasL [1],inhibition of Nef mediated FasL expression [2],inhibition of FasL induction [3],blocking of Nef activation of NF-κB reporter (NF-κB),blocking of bystander CD8+ T cell apoptosis [4],"inhibition of apoptosis driven by virus (Annexin V-FITC) ([5]; 1 μM, 89.6 or pNL4-3 virus, 4 days post infection)",inhibition of apoptosis induced by 4 subtype divergent primary HIV viral isolates ([5]; 1 μM),inhibition of FasL induction [6],"inhibition at 1 µM ([5]; Homo sapiens, PBMC, 96 h, read-out: inhibition of apoptosis driven by virus (Annexin V-FITC))"
"OCCC#Cc1nc(-c2ccc(F)cc2)c(-c2ccncc2)n1CCCc1ccccc1 [Cpd4, 4-(4-Fluorophenyl)-2-(4-hydroxybutyn-1-yl)-1-(3-phenylpropyl)-5-(4-pyridyl)imidazole]",decrease in the phosphorylated status of c-Jun; also recorded: can be blocked,effectively blocked this effect,~80%,did not alter the total levels of p38,no detectable increase in the phosphorylation of p38,inhibit p38 MAP Kinase,higher anti-p38 activity,potent inhibition of Nef driven induction of FasL; also recorded: thoroughly repressed Nef-induced FasL expression; also recorded: highly suppressed; also recorded: could prevent Nef driven FasL activation,aborted completely; also recorded: completely inhibited,Strong inhibition of FasL induction; also recorded: severely repressed the surface expression of FasL,effectively blocked this effect,effectively blocked bystander apoptosis; also recorded: could prevent Nef driven apoptosis of bystander cells,over 80%,could inhibit apoptosis,Strong inhibition of FasL induction; also recorded: severely repressed the surface expression of FasL,
"C[S+]([O-])c1ccc(-c2nc(-c3ccc(F)cc3)c(-c3ccncc3)[nH]2)cc1 (stereo not drawn) [SB203580, 4-[5-(4-Fluoro-phenyl)-2-(4-methanesulfinyl-phenyl)-3H-imidazol4-yl]-pyridine, reference compound]",,,~50%,,,,,,,,,,,could inhibit apoptosis,,> 50%
